Data published in US10507233B2, “Universal N-glycan binding reagent” (New England Biolabs, Inc., priority 2014, dated 2019).
Like-named read-outs stand apart in the source and are kept apart here.

T1: SNAP-Fbs (SNAP-wtFbs): human Fbs sugar binding domain, positions 113 to 296, wild type, SEQ ID NO: 2, fused to SNAP-tag (AGT variant, SEQ ID NO: 4), fusion SEQ ID NO: 3 (Homo sapiens, UniProt Q9UK22)
T1 construct: made in house; host or cells: E. coli, pSNAP-tag(T7)-2 vector
T1 sequence (Q9UK22 with tags, fused parts or gaps): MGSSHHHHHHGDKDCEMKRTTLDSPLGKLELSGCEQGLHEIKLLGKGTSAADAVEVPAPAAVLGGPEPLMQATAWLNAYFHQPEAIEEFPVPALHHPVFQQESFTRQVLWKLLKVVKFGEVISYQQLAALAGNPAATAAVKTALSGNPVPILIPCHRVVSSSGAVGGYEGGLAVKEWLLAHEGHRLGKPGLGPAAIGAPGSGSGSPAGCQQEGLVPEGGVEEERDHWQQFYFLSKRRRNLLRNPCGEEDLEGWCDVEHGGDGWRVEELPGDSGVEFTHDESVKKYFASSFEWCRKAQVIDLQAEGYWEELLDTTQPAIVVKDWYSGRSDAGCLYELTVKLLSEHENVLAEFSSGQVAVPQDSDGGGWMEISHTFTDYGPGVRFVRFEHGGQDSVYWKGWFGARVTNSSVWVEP


Columns and labels:
[1] = biological target: T1, SNAP-Fbs (SNAP-wtFbs): human Fbs sugar binding domain, positions 113 to 296, wild type, SEQ ID NO: 2, fused to SNAP-tag (AGT variant, SEQ ID NO: 4), fusion SEQ ID NO: 3; experiment: Isothermal titration calorimetry of glycan / sialylglycopeptide binding to SNAP-Fbs in solution; details: ITC, low salt buffer (50 mM NaCl, 20 mM Tris-HCl, 1 mM EDTA, pH 7.5), 90 μM glycan into 9 μM Fbs, single site binding model
Procedure: Fbs binds to N-glycan and N-glycan with fucose modification at the reducing end of GlcNAc. Isothermal titration calorimetry was used to assay the interaction between Fbs and core structure glycans. Man3GlcNAc2 (M3N2) and Man3GlcNAc2 with (alpha 1-6) fucose modification at the reducing end of GlcNAc (M3N2F) were used as binding substrates (both substrates were purchased from Prozyme, Hayward, Calif. SNAP-Fbs was dialysed against low salt buffer and the glycans were also dissolved in the same dialysis buffer. A Nano ITC instrument (TA Instruments, Lindon, Utah) with 170 μl cell volume and 50 μl buret volume was used. Every 300 seconds, 2.97 μl of 90 μM glycan was automatically injected into 9 μM Fbs solution. The data was fitted using a single site binding model (Nanoanalyze software (TA Instruments, Lindon, Utah)), and the Kd was calculated.
Isothermal titration calorimetry analysis of SGP (Fushimi Pharmaceutical Co., Marugame, Japan) binding to SNAP-Fbs. SNAP-Fbs was dialysed against low salt buffer and SGP was also dissolved in the same low salt buffer. A Nano ITC instrument with 170 μl cell volume and 50 μl buret volume was used. Every 300 seconds, 2.97 μl of 270 μM SGP was automatically injected into 27 μM Fbs solution. The data was fitted using a single site binding model (Nanoanalyze software), and Kd was calculated. […]

Fetuin = Fetuin pull-down assay (Affigel-Fetuin beads, SDS-PAGE, ImageJ); type: binding; details: low salt buffer, cell lysates
Excerpt: Fetuin, which contains sialylated complex N-linked glycans, served as the complex N-linked glycomolecule in this example. Fetuin was conjugated to Affigel 15 resin (Bio-Rad, Hercules, Calif.), and then denatured by 6 M Guanidine HCL. After denaturation, the fetuin beads were washed with 50 bead volumes of low salt buffer to remove Guanidine HCL. This immobilized denatured Fetuin was used to screen Fbs mutants for improved affinity to complex N-linked glycomolecules in low salt conditions in a fetuin pull-down assay. In this assay, cell lysates containing the same amount of wild type or mutant Fbs protein were incubated with the same amount of fetuin beads at 4° C. for 1 hour. After incubation, the fetuin beads were washed three times with low salt buffer. The bound Fbs proteins were eluted by 1× gel loading buffer, and analyzed by SDS-PAGE. In the fetuin pull-down assay, the amount of Fbs mutant protein shown on the SDS-PAGE gel indicates the relative affinity of each Fbs mutant for binding to a complex N-linked glycomolecule. Fbs amino acid residue serine 155 was mutated to alanine to assess the effect on the interaction with complex N-linked glycomolecules. Mutation of Ser155 to alanine was expected to reduce the affinity of the interaction between Fbs and fetuin according to the published report of Tanaka et al. (Tanaka, et al. PNAS). […]

Molecule | fetuin pull-down relative to wild type Fbs (Fetuin) [fold] | further results
CC(=O)N[C@H]1[C@H](O[C@H]2[C@H](O)[C@@H](NC(C)=O)C(O)O[C@@H]2CO)O[C@H](CO)[C@@H](O[C@@H]2O[C@H](CO[C@H]3O[C@H](CO)[C@@H](O)[C@H](O)[C@@H]3O)[C@@H](O)[C@H](O[C@H]3O[C@H](CO)[C@@H](O)[C@H](O)[C@@H]3O)[C@@H]2O)[C@@H]1O (stereo partly drawn) [M3N2, Man(α1-3)(Man(α1-6))Man(β1-4)GlcNAc(β1-4)GlcNAc] | – | Kd ([1]; read-out: Kd M3N2): 123 ± 36 nM
CC(=O)N[C@H]1[C@H](O[C@H]2[C@H](O)[C@@H](NC(C)=O)C(O)O[C@@H]2CO[C@@H]2O[C@@H](C)[C@@H](O)[C@@H](O)[C@@H]2O)O[C@H](CO)[C@@H](O[C@@H]2O[C@H](CO[C@H]3O[C@H](CO)[C@@H](O)[C@H](O)[C@@H]3O)[C@@H](O)[C@H](O[C@H]3O[C@H](CO)[C@@H](O)[C@H](O)[C@@H]3O)[C@@H]2O)[C@@H]1O (stereo partly shown) [M3N2F] | – | Kd ([1]; read-out: Kd M3N2F): 128 ± 37 nM
S155A: human Fbs SBD variant with S155A mutation (protein, left off: large carriers, human Fbs SBD variant with S155A mutation) FYFLSKRRRNLLRNPCGEEDLEGWCDVEHGGDGWRVEELPGDAGVEFTHDESVKKYFASSFEWCRKAQVIDLQAEGYWEELLDTTQPAIVVKDWYSGRSDAGCLYELTVKLLSEHENVLAEFSSGQVAVPQDSDGGGWMEISHTFTDYGPGVRFVRFEHGGQDSVYWKGWFGARVTNSSVWVEP | 1.5 | –
S155G: human Fbs SBD variant with S155G mutation (protein, left off: large carriers, human Fbs SBD variant with S155G mutation) FYFLSKRRRNLLRNPCGEEDLEGWCDVEHGGDGWRVEELPGDGGVEFTHDESVKKYFASSFEWCRKAQVIDLQAEGYWEELLDTTQPAIVVKDWYSGRSDAGCLYELTVKLLSEHENVLAEFSSGQVAVPQDSDGGGWMEISHTFTDYGPGVRFVRFEHGGQDSVYWKGWFGARVTNSSVWVEP | 2.0 | –
